Source: ChEMBL document CHEMBL1201862, “PubChem BioAssay data set” (2004)
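Method: 48-hour compound exposure of cells in 96-well plates, five concentrations, linear interpolation of endpoints. Abbreviation: GI50, concentration required for 50% inhibition of growth.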 Activity calls are given as the source filed them. No stated cut-off is given here; in the data, active = GI50 up to about 1.1 µM and inactive = higher.

Columns and labels:
Test in all cases: NCI anticancer screen, dose series, 48 h
HCT-15 = test system: HCT-15
HT-29 = test system: HT-29
MCF7 = test system: MCF7
UO-31 = test system: UO-31
SK-OV-3 = test system: SK-OV-3
CAKI-1 = test system: CAKI-1
786-0 = test system: 786-0
T47D = test system: T47D
SW-620 = test system: SW-620
PC-3 = test system: PC-3
SN12C = test system: SN12C
MDA-N = test system: MDA-N
OVCAR-5 = test system: OVCAR-5
U-251 = test system: U-251
SK-MEL-2 = test system: SK-MEL-2
OVCAR-3 = test system: OVCAR-3
OVCAR-8 = test system: OVCAR-8
SNB-75 = test system: SNB-75
SK-MEL-5 = test system: SK-MEL-5
HL-60 = test system: HL-60

Row | Structure (SMILES) | GI50 (HCT-15) | GI50 (HT-29) | GI50 (MCF7) | GI50 (UO-31) | GI50 (SK-OV-3) | GI50 (CAKI-1) | GI50 (786-0) | GI50 (T47D) | GI50 (SW-620) | GI50 (PC-3) | GI50 (SN12C) | GI50 (MDA-N) | GI50 (OVCAR-5) | GI50 (U-251) | GI50 (SK-MEL-2) | GI50 (OVCAR-3) | GI50 (OVCAR-8) | GI50 (SNB-75) | GI50 (SK-MEL-5) | GI50 (HL-60)
1 | N#CCCN(CCNc1ccccc1)C(=O)Nc1ccc(NC(=O)N(CCC#N)CCNc2ccccc2)cc1 | > 60.3 µM | > 100 µM (inactive) | > 100 µM (inactive) | > 100 µM (inactive) | > 65.6 µM (inactive) | > 100 µM (inactive) | > 68.9 µM (inactive) | > 58.1 µM (inactive) | > 100 µM (inactive) | > 93.1 µM (inactive) | > 100 µM (inactive) | > 100 µM (inactive) | > 100 µM (inactive) | > 100 µM (inactive) | > 100 µM (inactive) | > 92.9 µM (inactive) | > 73.8 µM (inactive) | 26.2 µM (inactive) | > 100 µM (inactive) | –
2 | CN1N=C(c2ccncc2)OC1c1cccc(F)c1 (centres undefined) | > 100 µM | > 100 µM (inactive) | > 100 µM (inactive) | > 100 µM (inactive) | > 100 µM (inactive) | – | > 100 µM (inactive) | > 100 µM (inactive) | > 100 µM (inactive) | > 100 µM (inactive) | > 100 µM (inactive) | > 100 µM (inactive) | > 100 µM (inactive) | > 100 µM (inactive) | > 100 µM (inactive) | > 100 µM (inactive) | > 100 µM (inactive) | > 100 µM (inactive) | > 100 µM (inactive) | > 100 µM (inactive)
3 | O=C(Nc1ccc2c(c1)oc(=O)c1ccccc12)C(Cl)Cl | 71.1 µM | 28.1 µM (inactive) | 34.8 µM (inactive) | > 100 µM (inactive) | – | > 100 µM (inactive) | > 100 µM (inactive) | > 100 µM (inactive) | > 100 µM (inactive) | 76.4 µM (inactive) | > 100 µM (inactive) | > 100 µM (inactive) | > 100 µM (inactive) | 60.1 µM (inactive) | > 100 µM (inactive) | 28.8 µM (inactive) | > 100 µM (inactive) | > 100 µM (inactive) | > 100 µM (inactive) | 12.2 µM (inactive)
4 | CC1(C)[C@@H](Cn2nnc3c(N)ncnc32)CC[C@@]1(C)CO | > 100 µM | – | > 100 µM (inactive) | > 100 µM (inactive) | > 100 µM (inactive) | > 100 µM (inactive) | > 100 µM (inactive) | > 100 µM (inactive) | > 100 µM (inactive) | > 100 µM (inactive) | > 100 µM (inactive) | > 100 µM (inactive) | > 100 µM (inactive) | > 100 µM (inactive) | > 100 µM (inactive) | > 100 µM (inactive) | – | > 100 µM (inactive) | 55 µM (inactive) | –
5 | COC(=O)c1cc(OS(=O)(=O)C(F)(F)F)c(=O)n2c1CCCC2 | > 100 µM | > 100 µM (inactive) | > 100 µM (inactive) | > 100 µM (inactive) | > 100 µM (inactive) | > 100 µM (inactive) | > 100 µM (inactive) | > 100 µM (inactive) | > 100 µM (inactive) | > 100 µM (inactive) | > 100 µM (inactive) | > 100 µM (inactive) | > 100 µM (inactive) | > 100 µM (inactive) | > 100 µM (inactive) | – | > 100 µM (inactive) | > 100 µM (inactive) | > 100 µM (inactive) | > 100 µM (inactive)
6 | CCC1CCN/C(=N/S(=O)(=O)c2cc(C)c(Cl)cc2S)N1 (centres undefined) | 38.5 µM | 30.1 µM (inactive) | 33.3 µM (inactive) | 36.3 µM (inactive) | 40.5 µM (inactive) | 30 µM (inactive) | 33.5 µM (inactive) | 26.8 µM (inactive) | 28.7 µM (inactive) | 50.2 µM (inactive) | 43.3 µM (inactive) | 33 µM (inactive) | 22.3 µM (inactive) | 13.8 µM (inactive) | 26.4 µM (inactive) | – | 19.8 µM (inactive) | 40 µM (inactive) | > 100 µM (inactive) | 30.8 µM (inactive)
7 | Clc1ccc(C2ON=C(c3ccccc3)N2C23CC4CC(CC(C4)C2)C3)cc1 (centres undefined) | > 10 µM | > 10 µM (inactive) | > 10 µM (inactive) | – | > 10 µM (inactive) | > 10 µM (inactive) | > 10 µM (inactive) | > 10 µM (inactive) | > 10 µM (inactive) | > 10 µM (inactive) | > 10 µM (inactive) | > 10 µM (inactive) | > 10 µM (inactive) | > 10 µM (inactive) | > 10 µM (inactive) | > 10 µM (inactive) | > 10 µM (inactive) | > 10 µM (inactive) | > 10 µM (inactive) | > 10 µM (inactive)
8 | COC(=O)CCc1cc(OC)c(O)c(C(Cc2ccc(OC)c(OC)c2)C(=O)OC)c1 (centres undefined) | > 100 µM | > 100 µM (inactive) | > 100 µM (inactive) | > 100 µM (inactive) | > 100 µM (inactive) | – | > 100 µM (inactive) | > 100 µM (inactive) | > 100 µM (inactive) | > 100 µM (inactive) | > 100 µM (inactive) | > 100 µM (inactive) | > 100 µM (inactive) | > 100 µM (inactive) | > 100 µM (inactive) | > 100 µM (inactive) | > 100 µM (inactive) | > 100 µM (inactive) | > 100 µM (inactive) | > 100 µM (inactive)
9 | Cc1ccc(Cc2nn(C)c(=O)n2-n2cccc2)cc1 | > 100 µM | > 100 µM (inactive) | > 100 µM (inactive) | > 100 µM (inactive) | > 100 µM (inactive) | > 100 µM (inactive) | > 100 µM (inactive) | > 100 µM (inactive) | > 100 µM (inactive) | > 100 µM (inactive) | > 100 µM (inactive) | > 100 µM (inactive) | > 100 µM (inactive) | > 100 µM (inactive) | > 100 µM (inactive) | > 100 µM (inactive) | > 100 µM (inactive) | > 100 µM (inactive) | > 100 µM (inactive) | –
10 | C[C@]12C[C@@H](OC(=O)[C@]1(C)O)[C@@H]([C@]1(O)CC[C@H]3[C@@H]4C[C@H]5O[C@]56C[C@H]5O[C@H]5C(=O)[C@]6(C)[C@H]4CC[C@@]31C)C2 | > 50 µM | > 50 µM (inactive) | > 50 µM (inactive) | > 50 µM (inactive) | > 50 µM (inactive) | > 50 µM (inactive) | > 50 µM (inactive) | > 50 µM (inactive) | > 50 µM (inactive) | > 50 µM (inactive) | > 50 µM (inactive) | > 50 µM (inactive) | > 50 µM (inactive) | > 50 µM (inactive) | > 50 µM (inactive) | – | > 50 µM (inactive) | 36 µM (inactive) | > 50 µM (inactive) | > 50 µM (inactive)
11 | S=C1N(c2ccc(Cl)cc2)C2=C(/N=N/c3ccccc3)C(=Nc3ccccc3S2)N1c1ccccn1 | 10.2 µM | 17.1 µM (inactive) | 0.167 µM (active) | 10.1 µM (inactive) | 17.8 µM (inactive) | 13.8 µM (inactive) | 14.9 µM (inactive) | 0.075 µM (active) | 16.4 µM (inactive) | 13.2 µM (inactive) | 12.5 µM (inactive) | 15.4 µM (inactive) | 19.1 µM (inactive) | 11 µM (inactive) | – | 14.2 µM (inactive) | 14.5 µM (inactive) | 19 µM (inactive) | 11.4 µM (inactive) | 12 µM (inactive)
12 | COc1cccc(-c2cc(O)c3cccnc3n2)c1 | 0.0873 µM | 0.0543 µM (active) | 0.488 µM (active) | 12.3 µM (inactive) | – | 0.0984 µM (active) | 0.165 µM (active) | > 100 µM (inactive) | 0.0809 µM (active) | 0.158 µM (active) | 0.406 µM (active) | 0.0159 µM (active) | – | 0.0984 µM (active) | > 100 µM (inactive) | 0.0571 µM (active) | 0.235 µM (active) | 0.0857 µM (active) | 0.0546 µM (active) | 0.0261 µM (active)
13 | C=C1CC(C)(c2ccc(Nc3nc4ccccc4c4occc34)cc2)OC1=O (centres undefined) | 1.94 µM | 3.61 µM (inactive) | 3.32 µM (inactive) | – | 10.8 µM (inactive) | 15.8 µM (inactive) | 2.16 µM (inactive) | 3.03 µM (inactive) | – | 4.36 µM (inactive) | 1.93 µM (inactive) | 3.29 µM (inactive) | 14.1 µM (inactive) | 5.33 µM (inactive) | – | 3.74 µM (inactive) | 2.66 µM (inactive) | 1.92 µM (inactive) | 5.09 µM (inactive) | 2.07 µM (inactive)
14 | CCNC(=O)Nc1cccc(NC(=O)NCC)n1 | – | 76.4 µM (inactive) | 57.1 µM (inactive) | 43.8 µM (inactive) | > 100 µM (inactive) | 75.2 µM (inactive) | > 100 µM (inactive) | > 100 µM (inactive) | > 100 µM (inactive) | 59.3 µM (inactive) | > 100 µM (inactive) | > 100 µM (inactive) | > 100 µM (inactive) | > 100 µM (inactive) | – | > 100 µM (inactive) | > 100 µM (inactive) | 24.5 µM (inactive) | > 100 µM (inactive) | 34.1 µM (inactive)
15 | O=C(CC(=O)N1N=C(N2CCCCC2)CC1c1ccccc1)Nc1ccc(Cl)cc1 (centres undefined) | > 100 µM | > 100 µM (inactive) | > 100 µM (inactive) | > 100 µM (inactive) | – | > 100 µM (inactive) | > 100 µM (inactive) | > 100 µM (inactive) | > 100 µM (inactive) | > 100 µM (inactive) | > 100 µM (inactive) | > 100 µM (inactive) | > 100 µM (inactive) | > 100 µM (inactive) | > 100 µM (inactive) | > 100 µM (inactive) | > 100 µM (inactive) | > 100 µM (inactive) | > 100 µM (inactive) | > 100 µM (inactive)
